Data from the NIST ThermoML archive (doi:10.1016/j.jct.2006.08.009).

Experiment: mn = molality of the nth substance listed, in mol/kg
Details: 350 kPa, Liquid; for apparent molar heat capacity: Extra sensitive DSC

OC[C@@H](O)[C@@H](O)[C@H](O)[C@@H](O)CO [D-sorbitol] + O
Details | apparent molar heat capacity [J/K/mol] | mass density [kg/m3]
318.15 K, m1 = 0.4003 | – | 1013.97
318.15 K, m1 = 0.6991 | – | 1030.3
318.15 K, m1 = 0.9784 | – | 1044.19
318.15 K, m1 = 1.501 | – | 1068.13
318.15 K, m1 = 2.004 | – | 1088.73
323.15 K, m1 = 0.02 | 468 | –
323.15 K, m1 = 0.04 | 446 | –
323.15 K, m1 = 0.069 | 451.9 | –
323.15 K, m1 = 0.1997 | 455 | –
323.15 K, m1 = 0.4003 | 456.3 | –
323.15 K, m1 = 0.6991 | 457.6 | –
323.15 K, m1 = 0.9784 | 459 | –
323.15 K, m1 = 1.501 | 456.5 | –
323.15 K, m1 = 2.004 | 463 | –
328.15 K, m1 = 0.02 | 473 | 987.02
328.15 K, m1 = 0.04 | 450.8 | 988.24
328.15 K, m1 = 0.069 | 457.2 | 989.98
328.15 K, m1 = 0.1997 | 460.2 | 997.75
328.15 K, m1 = 0.4003 | 461.5 | 1009.18
328.15 K, m1 = 0.6991 | 462.7 | 1025.35
328.15 K, m1 = 0.9784 | 464 | 1039.16
328.15 K, m1 = 1.501 | 461.4 | 1062.99
328.15 K, m1 = 2.004 | 467.6 | 1083.37
333.15 K, m1 = 0.02 | 478 | –
333.15 K, m1 = 0.04 | 456.4 | –
333.15 K, m1 = 0.069 | 462 | –
333.15 K, m1 = 0.1997 | 464.9 | –
333.15 K, m1 = 0.4003 | 466.2 | –
333.15 K, m1 = 0.6991 | 467.3 | –
333.15 K, m1 = 0.9784 | 468.5 | –
333.15 K, m1 = 1.501 | 465.9 | –
333.15 K, m1 = 2.004 | 471.9 | –
338.15 K, m1 = 0.02 | 482 | 981.86
338.15 K, m1 = 0.04 | 460.5 | 983.14
338.15 K, m1 = 0.069 | 466.2 | 984.86
338.15 K, m1 = 0.1997 | 469.2 | 992.6
338.15 K, m1 = 0.4003 | 470.5 | 1003.94
338.15 K, m1 = 0.6991 | 471.5 | 1020.02
338.15 K, m1 = 0.9784 | 472.6 | 1033.71
338.15 K, m1 = 1.501 | 470.1 | 1057.29
338.15 K, m1 = 2.004 | 475.8 | 1077.49
343.15 K, m1 = 0.02 | 486 | –
343.15 K, m1 = 0.04 | 464 | –
343.15 K, m1 = 0.069 | 470 | –
343.15 K, m1 = 0.1997 | 473 | –
343.15 K, m1 = 0.4003 | 474.3 | –
343.15 K, m1 = 0.6991 | 475.3 | –
343.15 K, m1 = 0.9784 | 476.3 | –
343.15 K, m1 = 1.501 | 473.9 | –
343.15 K, m1 = 2.004 | 479.3 | –
348.15 K, m1 = 0.02 | 489 | 976.44
348.15 K, m1 = 0.04 | 467.7 | 977.62
348.15 K, m1 = 0.069 | 473.3 | 979.35
348.15 K, m1 = 0.1997 | 476.4 | 987.03
348.15 K, m1 = 0.4003 | 477.7 | 998.25
348.15 K, m1 = 0.6991 | 478.6 | 1014.26
348.15 K, m1 = 0.9784 | 479.7 | 1027.75
348.15 K, m1 = 1.501 | 477.3 | 1051.07
348.15 K, m1 = 2.004 | 482.4 | 1071.23
353.15 K, m1 = 0.02 | 492 | –
353.15 K, m1 = 0.04 | 472.1 | –
353.15 K, m1 = 0.069 | 476.2 | –
353.15 K, m1 = 0.1997 | 479.4 | –
353.15 K, m1 = 0.4003 | 480.6 | –
353.15 K, m1 = 0.6991 | 481.6 | –
353.15 K, m1 = 0.9784 | 482.6 | –
353.15 K, m1 = 1.501 | 480.4 | –
353.15 K, m1 = 2.004 | 485.2 | –
358.15 K, m1 = 0.02 | 494 | 969.9
358.15 K, m1 = 0.04 | 480.2 | 971.49
358.15 K, m1 = 0.069 | 478.7 | 972.88
358.15 K, m1 = 0.1997 | 481.7 | 980.97
358.15 K, m1 = 0.4003 | 483 | 991.75
358.15 K, m1 = 0.6991 | 483.9 | 1007.73
358.15 K, m1 = 0.9784 | 484.8 | 1021.37
358.15 K, m1 = 1.501 | 483.2 | 1044.38
358.15 K, m1 = 2.004 | 487.4 | 1064.53
363.15 K, m1 = 0.02 | 495 | –
363.15 K, m1 = 0.04 | 508 | –
363.15 K, m1 = 0.069 | 479.6 | –
363.15 K, m1 = 0.1997 | 482.5 | –
363.15 K, m1 = 0.4003 | 483.7 | –
363.15 K, m1 = 0.6991 | 484.6 | –
363.15 K, m1 = 0.9784 | 485.5 | –
363.15 K, m1 = 1.501 | 485.7 | –
363.15 K, m1 = 2.004 | 487.9 | –
368.15 K, m1 = 0.02 | – | 963.45
368.15 K, m1 = 0.04 | – | 964.68
368.15 K, m1 = 0.069 | – | 966.4
368.15 K, m1 = 0.1997 | – | 974.03
368.15 K, m1 = 0.4003 | – | 985.25
368.15 K, m1 = 0.6991 | – | 1001.2
368.15 K, m1 = 0.9784 | – | 1014.47
368.15 K, m1 = 1.501 | – | 1037.56
368.15 K, m1 = 2.004 | – | 1057.91
